According to patent US11274332B2, “Methods of administering 3,4-diaminopyridine” (SERB SA, priority 2011, dated 2022):
Read-outs that look alike come from different tables or passages of the source.

Assay: Example 18 Part 2: multiple dose PK (20 mg QID) of 3,4-DAP and 3-N-acetyl metabolite in slow and fast acetylators
Type: in vivo, human
Settings: for AUC(0-t) / Cmax / Tmax / Vd/F / half-life: both sexes, human, plasma, oral, 20 mg; for Cmax: read-out: Cmax; for Tmax: read-out: Tmax; for Vd/F: read-out: Vz/F; for half-life: read-out: t1/2 (converted)
Procedure: The following method was used to analyze concentrations of 3,4-diaminopyridine and N-(4-aminopyridin-3-yl)acetamide in plasma and urine samples for the experiments in Example 18. In the LC/MS/MS method, the human plasma and urine samples were extracted using acetonitrile containing 0.1% formic acid. Samples were analyzed by using HPLC with positive ion electrospray MS/MS detection. The column was an Atlantis HILIC Silica column (3 μm, 3×50 mm) at a temperature of 40° C. Mobile phase A was water containing ammonium formate (20 mM) and 0.1% formic acid. Mobile phase B was acetonitrile/isopropanol (90/10; v/v) containing 0.1% formic acid. The flow rate was 0.90 mL/minute. The gradient conditions for human plasma and urine samples were as follows:
The LC/MS/MS method was validated to quantify 3,4-DAP in human plasma in the linear calibration range of 0.500 to 500 ng/mL and from 1.00 to 1000 ng/mL for the 3-N-acetyl metabolite.
The primary objective of the study was to assess the safety and tolerability of 3,4-DAP phosphate after single and multiple doses. The secondary objectives of the study were • Part 1 only: To determine the dose-related PK profile of amifampridine and of 3-N-acetyl amifampridine after single, escalating doses of 3,4-DAP phosphate • Part 2 only: To assess the steady-state plasma PK and accumulation of amifampridine and of 3-N-acetyl amifampridine over multiple days of dosing with 3,4-DAP phosphate An exploratory objective was to examine the overall activity of the N-acetyl transferase enzymes on the metabolism of amifampridine by assessing the PK of amifampridine and 3-N-acetyl amifampridine with phenotypic acetylation activity and genotyping determination of NAT2 gene polymorphisms. Study Design and Plan
This open-label study in healthy subjects (male and female) was conducted in 2 parts. A total of 26 healthy male and female subjects, 12 in Part 1 (at least 5 of each sex), 4 in Part 2 Group 1, and 10 in Part 2 Group 2 (at least 4 of each sex) were enrolled into the study. The same subjects were not enrolled to participate in both parts. Subjects in Part 2 were dosed only after all subjects of Part 1 completed dosing and at least 24-hours of follow-up safety evaluation after the last dose were completed.
All subjects were characterized for their metabolic acetylation phenotype and NAT2 genotype in order to divide subjects into two groups of acetylators. Volunteers were genetically typed for highly variant alleles of the N-acetyl transferase 2 enzyme (NAT2) domain on chromosome 8 (according to Example 16) and were phenotyped for acetylation rates with a caffeine challenge test (according to Example 15a). Approximately equal numbers of slow and fast acetylators (as defined by a caffeine challenge test in Example 15a) were enrolled in each group. In Part 2, very slow acetylators with NAT2 activity (ratio 1, Example 15a) below 0.06 were excluded from participation in the study. In each part of the study, subjects were assessed for PK, safety, and tolerability and all doses were administered within 30 min of ingestion of a meal or a snack.
Part 2, Group 1: Four sentinel subjects were selected after determining their acetylator status. Two were fast acetylators and two were slow acetylators. All four were dosed on Day 1 with 4 oral doses of 20 mg of 34-DAP phosphate (given at 4-hour dosing intervals). On Days […] and 2, safety and tolerability data was collected. Subjects left the clinic on Day 2. The safety and tolerability data collected for these 4 sentinel subjects were reviewed. The safety and tolerability results of Days 1 and 2 for these subjects were acceptable and thus Part 2 Group 2 was commenced. Minimally acceptable safety was defined as the absence of clinical seizure activity. Subjects in Group 1 returned to the clinic for their follow-up assessments 2-4 days following their last dose.
Each subject was given a final morning dose of 20 mg 3,4-DAP phosphate on Day 4. […]

[1] = Day 1, fast acetylators, Dose 1 interval, 20 mg QID, arith. mean
[2] = Day 1, fast acetylators, Dose 2 interval, 20 mg QID, arith. mean
[3] = Day 1, fast acetylators, Dose 3 interval, 20 mg QID, arith. mean
[4] = Day 1, fast acetylators, Dose 4 interval, 20 mg QID, arith. mean
[5] = Day 1, slow acetylators, Dose 1 interval, 20 mg QID, arith. mean
[6] = Day 1, slow acetylators, Dose 2 interval, 20 mg QID, arith. mean
[7] = Day 1, slow acetylators, Dose 3 interval, 20 mg QID, arith. mean
[8] = Day 1, slow acetylators, Dose 4 interval, 20 mg QID, arith. mean
[9] = Day 3, fast acetylators, Dose 1 interval, 20 mg QID, arith. mean
[10] = Day 3, fast acetylators, Dose 2 interval, 20 mg QID, arith. mean
[11] = Day 3, fast acetylators, Dose 3 interval, 20 mg QID, arith. mean
[12] = Day 3, fast acetylators, Dose 4 interval, 20 mg QID, arith. mean
[13] = Day 3, slow acetylators, Dose 1 interval, 20 mg QID, arith. mean
[14] = Day 3, slow acetylators, Dose 2 interval, 20 mg QID, arith. mean
[15] = Day 3, slow acetylators, Dose 3 interval, 20 mg QID, arith. mean
[16] = Day 3, slow acetylators, Dose 4 interval, 20 mg QID, arith. mean
[17] = metabolite, Day 4, 20 mg single dose, fast acetylators
[18] = metabolite, Day 4, 20 mg single dose, slow acetylators

Structure (SMILES): CC(=O)Nc1cnccc1N [3-N-acetyl amifampridine, N-(4-aminopyridin-3-yl)acetamide]
- CL/F [1]: 16.2 L/h
- CL/F [2]: 7.78 L/h
- CL/F [3]: 8.90 L/h
- CL/F [4]: 7.62 L/h
- CL/F [5]: 28.8 L/h
- CL/F [6]: 20.2 L/h
- CL/F [7]: 13.5 L/h
- CL/F [8]: 10.4 L/h
- CL/F [9]: 11.5 L/h
- CL/F [10]: 7.56 L/h
- CL/F [11]: 7.72 L/h
- CL/F [12]: 7.03 L/h
- CL/F [13]: 19.0 L/h
- CL/F [14]: 14.5 L/h
- CL/F [15]: 12.7 L/h
- CL/F [16]: 9.65 L/h
- AUC(0-t) (Day 1, fast acetylators, Dose 1-4, 20 mg QID, arith. mean, read-out: AUC0-24): 5740 ng·h/mL
- AUC(0-t) (Day 1, fast acetylators, Dose 1 interval, 20 mg QID, arith. mean, read-out: AUC0-4): 773 ng·h/mL
- Cmax [1]: 333 ng/mL
- Tmax [1]: 1.43 h
- Vd/F [1]: 55.2 L
- half-life [1]: 2.35 h
- AUC(0-t) (Day 1, fast acetylators, Dose 2 interval, 20 mg QID, arith. mean, read-out: AUC0-4): 1160 ng·h/mL
- Cmax [2]: 396 ng/mL
- Tmax [2]: 1.5 h
- Vd/F [2]: 32.9 L
- half-life [2]: 2.93 h
- AUC(0-t) (Day 1, fast acetylators, Dose 3 interval, 20 mg QID, arith. mean, read-out: AUC0-4): 1280 ng·h/mL
- Cmax [3]: 426 ng/mL
- Tmax [3]: 0.964 h
- Vd/F [3]: 40.3 L
- half-life [3]: 3.28 h
- AUC(0-t) (Day 1, fast acetylators, Dose 4 interval, 20 mg QID, arith. mean, read-out: AUC0-4): 1340 ng·h/mL
- Cmax [4]: 433 ng/mL
- Tmax [4]: 1.14 h
- Vd/F [4]: 40 L
- half-life [4]: 3.93 h
- AUC(0-t) (Day 1, slow acetylators, Dose 1-4, 20 mg QID, arith. mean, read-out: AUC0-24): 3580 ng·h/mL
- AUC(0-t) (Day 1, slow acetylators, Dose 1 interval, 20 mg QID, arith. mean, read-out: AUC0-4): 383 ng·h/mL
- Cmax [5]: 150 ng/mL
- Tmax [5]: 1.68 h
- Vd/F [5]: 120 L
- half-life [5]: 2.95 h
- AUC(0-t) (Day 1, slow acetylators, Dose 2 interval, 20 mg QID, arith. mean, read-out: AUC0-4): 627 ng·h/mL
- Cmax [6]: 204 ng/mL
- Tmax [6]: 1.46 h
- Vd/F [6]: 101 L
- half-life [6]: 3.5 h
- AUC(0-t) (Day 1, slow acetylators, Dose 3 interval, 20 mg QID, arith. mean, read-out: AUC0-4): 759 ng·h/mL
- Cmax [7]: 240 ng/mL
- Tmax [7]: 1.25 h
- Vd/F [7]: 71.5 L
- half-life [7]: 4 h
- AUC(0-t) (Day 1, slow acetylators, Dose 4 interval, 20 mg QID, arith. mean, read-out: AUC0-4): 769 ng·h/mL
- Cmax [8]: 235 ng/mL
- Tmax [8]: 1.71 h
- Vd/F [8]: 70.6 L
- half-life [8]: 4.74 h
- AUC(0-t) (Day 3, fast acetylators, Dose 1-4, 20 mg QID, arith. mean, read-out: AUC0-24): 6570 ng·h/mL
- AUC(0-t) (Day 3, fast acetylators, Dose 1 interval, 20 mg QID, arith. mean, read-out: AUC0-4): 1020 ng·h/mL
- Cmax [9]: 374 ng/mL
- Tmax [9]: 1.35 h
- Vd/F [9]: 44.5 L
- half-life [9]: 2.77 h
- AUC(0-t) (Day 3, fast acetylators, Dose 2 interval, 20 mg QID, arith. mean, read-out: AUC0-4): 1320 ng·h/mL
- Cmax [10]: 448 ng/mL
- Tmax [10]: 1.3 h
- Vd/F [10]: 36.6 L
- half-life [10]: 3.6 h
- AUC(0-t) (Day 3, fast acetylators, Dose 3 interval, 20 mg QID, arith. mean, read-out: AUC0-4): 1410 ng·h/mL
- Cmax [11]: 490 ng/mL
- Tmax [11]: 0.9 h
- Vd/F [11]: 39.2 L
- half-life [11]: 3.74 h
- AUC(0-t) (Day 3, fast acetylators, Dose 4 interval, 20 mg QID, arith. mean, read-out: AUC0-4): 1460 ng·h/mL
- Cmax [12]: 509 ng/mL
- Tmax [12]: 1.1 h
- Vd/F [12]: 42 L
- half-life [12]: 4.17 h
- AUC(0-t) (Day 3, slow acetylators, Dose 1-4, 20 mg QID, arith. mean, read-out: AUC0-24): 3650 ng·h/mL
- AUC(0-t) (Day 3, slow acetylators, Dose 1 interval, 20 mg QID, arith. mean, read-out: AUC0-4): 523 ng·h/mL
- Cmax [13]: 206 ng/mL
- Tmax [13]: 1.75 h
- Vd/F [13]: 95 L
- half-life [13]: 3.47 h
- AUC(0-t) (Day 3, slow acetylators, Dose 2 interval, 20 mg QID, arith. mean, read-out: AUC0-4): 684 ng·h/mL
- Cmax [14]: 222 ng/mL
- Tmax [14]: 1.5 h
- Vd/F [14]: 81.5 L
- half-life [14]: 3.89 h
- AUC(0-t) (Day 3, slow acetylators, Dose 3 interval, 20 mg QID, arith. mean, read-out: AUC0-4): 802 ng·h/mL
- Cmax [15]: 249 ng/mL
- Tmax [15]: 1.2 h
- Vd/F [15]: 68.1 L
- half-life [15]: 3.75 h
- AUC(0-t) (Day 3, slow acetylators, Dose 4 interval, 20 mg QID, arith. mean, read-out: AUC0-4): 814 ng·h/mL
- Cmax [16]: 258 ng/mL
- Tmax [16]: 0.9 h
- Vd/F [16]: 78.3 L
- half-life [16]: 5.7 h
- AUC(0-t) (metabolite, Day 4, 20 mg single dose, fast acetylators, read-out: Mean AUC0-4): 1030 ng·h/mL
- AUC(0-t) (metabolite, Day 4, 20 mg single dose, fast acetylators, read-out: Mean AUC0-24): 2120 ng·h/mL
- AUC(0-t) (metabolite, Day 4, 20 mg single dose, slow acetylators, read-out: Mean AUC0-4): 513 ng·h/mL
- AUC(0-t) (metabolite, Day 4, 20 mg single dose, slow acetylators, read-out: Mean AUC0-24): 1230 ng·h/mL
- Mean CL/F [17]: 69.4 L/h
- Mean t1/2 [17]: 1.40 h
- Mean CL/F [18]: 116 L/h
- Mean t1/2 [18]: 1.55 h
